{
  "source": "patent US11160794B2",
  "about": "“Methods for treating congenital disorders of glycosylation” (Maggie's Pearl, LLC, priority 2018, dated 2021)",
  "tested_on": "pmm-2 F125L/F125L worms",
  "assay": "Bortezomib-induced growth suppression rescue screen in pmm-2 F125L worms",
  "assay_type": "in vivo, nematode (worms)",
  "conditions": "25 μM drug, 11 μM Bzb, 5 days; one row per replicate",
  "from_the_text": "A F119L point mutation strain, orthologous F125L in worms was created.\nBecause an underlying defect in glycosylation may be manifested when subjected to external chemical stressors, Pmm-2 F119L homozygous animals were subjected to Tunicamycin and Bortezomib drug exposures. Tunicamycin is an inhibitor of N-linked glycosylation and Bortezomib (Bzb) is an irreversible inhibitor of the proteasome. It was contemplated that either or both drugs would affect the Pmm-2 mutants differently compared to wild type (“WT”).\nThus, Bzb-induced growth suppression was used as a means to identify compounds that might rescue the global effects of exacerbated glycosylation deficiency. Using this approach, animals were age-synchronized to obtain L1 larvae. Fifteen L1 larvae were dispensed into wells of a 384-well plate containing 25 μM of drugs (obtained from the MicroSource Spectrum library purchased from MicroSource Discovery Systems) and 11 μM Bzb. Bacterial media at fixed optical density was added to wells to enable worms to grow for a 5 day period. Animals were dispensed using Biosorter, a large particle flow cytometer by Union Biometrica, Mass. At the end of the 5 day period, animals were treated with 15 μls of 8 mM sodium azide (for 55 μls of total assay volume). After 20 minutes, immobilized animals were imaged using a plate imager under transmitted light. A custom image processing script was used to extract the areas occupied by worms/well over a 5 day period. Each plate has positive controls (no Bzb) and negative controls (11 μM Bzb) that was used to determine the z score of test wells per plate. After outlier correction for each plate in each replicate, data from all three replicates was compared. Wells per plate with positive z scores greater than 2 were identified as “hits.” If hits reproduced across all three replicates were then compared. […] At least 13 of the 20 compounds belong to the category of antioxidants; still others fall in the category of catecholamines",
  "note": "Structures can show the parent of a compound that is named as a salt.",
  "data": [
    {"smiles": "COc1cccc(O)c1O", "note": "[3-METHOXYCATECHOL, 3-methoxycatechol]", "values": [
      {"measurement": "Status", "value": "HIT (Wells per plate with positive z scores greater than 2 were identified as “hits.”)"}
    ]},
    {"smiles": "O=C(O)c1cc(O)c(=O)c2c(O)c(O)c(O)cc2c1", "note": "[PURPUROGALLIN-4-CARBOXYLIC ACID, purpurogallin-4-carboxylic acid]", "values": [
      {"measurement": "Status", "value": "HIT (Wells per plate with positive z scores greater than 2 were identified as “hits.”)"}
    ]},
    {"smiles": "O=c1cc(-c2cc(O)c(O)c(O)c2)oc2cc(O)cc(O)c12", "note": "[HIERACIN, hieracin]", "values": [
      {"measurement": "Status", "value": "HIT (Wells per plate with positive z scores greater than 2 were identified as “hits.”)"}
    ]},
    {"smiles": "Nc1ccc(O)c(N)c1", "note": "[AMIDOL DIHYDROCHLORIDE, amidol dihydrochloride]", "values": [
      {"measurement": "Status", "value": "HIT (Wells per plate with positive z scores greater than 2 were identified as “hits.”)"}
    ]},
    {"smiles": "O=c1c(O)c(-c2ccc(O)c(O)c2)oc2c(O)c(O)cc(O)c12", "note": "[GOSSYPETIN, gossypetin]", "values": [
      {"measurement": "Status", "value": "HIT (Wells per plate with positive z scores greater than 2 were identified as “hits.”)"}
    ]},
    {"smiles": "O=c1cc(-c2ccccc2)oc2cc(O)c(O)c(O)c12", "note": "[BAICALEIN, baicalein]", "values": [
      {"measurement": "Status", "value": "HIT (Wells per plate with positive z scores greater than 2 were identified as “hits.”)"}
    ]},
    {"smiles": "CC(CCc1ccc(O)cc1)NCCc1ccc(O)c(O)c1", "note": "(stereo not drawn) [DOBUTAMINE HYDROCHLORIDE, dobutamine hydrochloride, reference compound]", "values": [
      {"measurement": "Status", "value": "HIT (Wells per plate with positive z scores greater than 2 were identified as “hits.”)"}
    ]},
    {"smiles": "CCC(N)C(O)c1ccc(O)c(O)c1", "note": "(stereo not drawn) [ETHYLNOREPINEPHRINE HYDROCHLORIDE, ethylnorepinephrine hydrochoride, reference compound]", "values": [
      {"measurement": "Status", "value": "HIT (Wells per plate with positive z scores greater than 2 were identified as “hits.”)"}
    ]},
    {"smiles": "N[C@@H](Cc1ccc(O)c(O)c1)C(=O)O", "note": "[LEVODOPA, levodopa, reference compound]", "values": [
      {"measurement": "Status", "value": "HIT (Wells per plate with positive z scores greater than 2 were identified as “hits.”)"}
    ]},
    {"smiles": "CC1=NN(c2ccccc2)C(=O)C1", "note": "[EDARAVONE, edaravone, reference compound]", "values": [
      {"measurement": "Status", "value": "HIT (Wells per plate with positive z scores greater than 2 were identified as “hits.”)"}
    ]},
    {"smiles": "O=C(O[C@@H]1Cc2c(O)cc(O)cc2O[C@@H]1c1ccc(O)c(O)c1)c1cc(O)c(O)c(O)c1", "note": "[EPICATECHIN MONOGALLATE, epicatechin monogallate]", "values": [
      {"measurement": "Status", "value": "HIT (Wells per plate with positive z scores greater than 2 were identified as “hits.”)"}
    ]},
    {"smiles": "COc1ccc(-c2coc3cc(O)ccc3c2=O)c(O)c1O", "note": "[KOPARIN, koparin]", "values": [
      {"measurement": "Status", "value": "HIT (Wells per plate with positive z scores greater than 2 were identified as “hits.”)"}
    ]},
    {"smiles": "COc1ccc(C(=O)c2ccc(O)cc2)c(O)c1O", "note": "[2,3,4′-TRIHYDROXY-4-METHOXYBENZOPHENONE, 2,3,4′-trihydroxy-4-methoxybenzophenone]", "values": [
      {"measurement": "Status", "value": "HIT (Wells per plate with positive z scores greater than 2 were identified as “hits.”)"}
    ]},
    {"smiles": "O=c1c(O)cccc2ccc(O)c(O)c12", "values": [
      {"measurement": "Status", "value": "HIT (Wells per plate with positive z scores greater than 2 were identified as “hits.”)"}
    ]},
    {"smiles": "O=c1oc2c(O)c(O)cc3c(=O)oc4c(O)c(O)cc1c4c23", "note": "[ELLAGIC ACID, ellagic acid]", "values": [
      {"measurement": "Status", "value": "HIT (Wells per plate with positive z scores greater than 2 were identified as “hits.”)"}
    ]},
    {"smiles": "O=c1c(O)c(-c2ccc(O)c(O)c2)oc2cc(O)ccc12", "note": "[FISETIN, fisetin]", "values": [
      {"measurement": "Status", "value": "HIT (Wells per plate with positive z scores greater than 2 were identified as “hits.”)"}
    ]},
    {"smiles": "O=C(O[C@@H]1Cc2c(O)cc(O)cc2O[C@@H]1c1cc(O)c(=O)c2c(O)c(O)cc([C@H]3Oc4cc(O)cc(O)c4C[C@H]3O)c2c1)c1cc(O)c(O)c(O)c1", "note": "[THEAFLAVIN MONOGALLATES, theaflavin monogallate]", "values": [
      {"measurement": "Status", "value": "HIT (Wells per plate with positive z scores greater than 2 were identified as “hits.”)"}
    ]},
    {"smiles": "COc1cc(O)c2c(=O)c(O)c(-c3ccc(O)c(O)c3)oc2c1", "note": "[RHAMNETIN, rhamnetin]", "values": [
      {"measurement": "Status", "value": "HIT (Wells per plate with positive z scores greater than 2 were identified as “hits.”)"}
    ]}
  ]
}
